Measured values taken from patent publication US12180476B2, “Use of PIWI-interacting RNA piR-hsa-211106” (Qingdao University, priority 2022, dated 2024).
Entries after “also recorded” stand apart in the source; their conditions may differ.

What was measured:
[1] = system: lung adenocarcinoma cells A549; assay: CCK8 proliferation activity assay; type: cell-based; conditions: 0, 1, 2, 3, and 4 days after transfection, FIG. 1
Experimental: (§1) This example related to a process of transfecting an agonist to lung adenocarcinoma cells: after the lung adenocarcinoma cells were passaged to a cell density of about 30-50%, the agonist was transfected to the lung adenocarcinoma cells by lipo3000. 5 μl (100 pmol) of the agonist was added to an EP tube containing 95 μl of a DMEM medium by pipetting and mixing, 5 μl of lipo3000 was added to the EP tube containing 95 μl of the DMEM medium by pipetting and mixing, the two materials were mixed at a volume ratio of 1:1 to form a transfection mixture, the mixture was allowed to stand at a room temperature for 20 min and added into a culture plate, and an analysis at gene and protein levels was conducted after 48 h.

[2] = system: lung adenocarcinoma cells HCC2279; assay: CCK8 proliferation activity assay; type: cell-based; conditions: 0, 1, 2, 3, and 4 days after transfection, FIG. 1
Experimental: as §1

[3] = system: lung adenocarcinoma cells A549; assay: Edu staining proliferation assay; type: cell-based; conditions: after transfection for two days, FIGS. 2 and 3
Experimental: as §1, with “h. […]” for “h.”

[4] = system: lung adenocarcinoma cells HCC2279; assay: Edu staining proliferation assay; type: cell-based; conditions: after transfection for two days, FIGS. 2 and 3
Experimental: as §1, with “h. […]” for “h.”

[5] = system: lung adenocarcinoma cells A549; assay: Transwell chamber migration assay; type: cell-based; conditions: after transfection for two days, 24 h migration, FIGS. 4 and 5
Experimental: as §1

[6] = system: lung adenocarcinoma cells HCC2279; assay: Transwell chamber migration assay; type: cell-based; conditions: after transfection for two days, 24 h migration, FIGS. 4 and 5
Experimental: as §1

[7] = system: lung adenocarcinoma cells A549; assay: Scratch experiment migration assay; type: cell-based; conditions: after transfection for two days, 0 h and 24 h after scratching, FIGS. 6 and 7
Experimental: as §1

[8] = system: lung adenocarcinoma cells HCC2279; assay: Scratch experiment migration assay; type: cell-based; conditions: after transfection for two days, 0 h and 24 h after scratching, FIGS. 6 and 7
Experimental: as §1

[9] = system: lung adenocarcinoma cells A549; assay: Apoptosis by flow cytometry (Annexin V-FITC/PI); type: cell-based; conditions: after transfection for two days, FIGS. 8 and 9
Experimental: (§2) This example related to a process of transfecting an agonist to lung adenocarcinoma cells: after the lung adenocarcinoma cells were passaged to a cell density of about 30-50%, the agonist was transfected to the lung adenocarcinoma cells by lipo3000. […]
(§3) This example related to a detection process of apoptosis of lung adenocarcinoma cells A549 and HCC2279 by a flow cytometry: the lung adenocarcinoma cells were cultured, the cells in the experimental group were transfected with a PIWI-interacting RNA piR-hsa-211106, after transfection for two days, apoptosis was detected by Annexin V-FITC/PI (Shanghai YEASEN Biotechnology Co., Ltd): • (1) after the lung adenocarcinoma cells were digested with a trypsin without EDTA, centrifugation was conducted at 300 g and 4° C. for 5 min and the cells were collected; • (2) the cells were washed twice with a pre-cooled PBS, centrifugation was conducted at 300 g and 4° C. for 5 min each time and 1-5×10^5 cells were collected; • (3) the PBS was pipetted and discarded, and 1× binding buffer was added to resuspend the cells; • (4) annexin V-FITC and a PI staining solution were added, gentle mixing was conducted, and reaction was conducted in dark at room temperature for 10-15 min; and • (5) 1× binding buffer was added, even mixing was conducted, an obtained mixture was placed on ice, and detection was conducted with the flow cytometry within 1 h.

[10] = system: lung adenocarcinoma cells HCC2279; assay: Apoptosis by flow cytometry (Annexin V-FITC/PI); type: cell-based; conditions: after transfection for two days, FIGS. 8 and 9
Experimental: as §2, §3

pyruvate carboxylase [11] = molecular target: T1, pyruvate carboxylase (Homo sapiens, UniProt P11498); assay: Biotin-coupled probe RNA pull-down assay with western blot; type: binding; conditions: biotinylated piR-hsa-211106 probe, lung adenocarcinoma cell lysate; FIG. 10
T1 construct: 1×10^7 lung adenocarcinoma cells were harvested, lysed and subjected to an ultrasonic treatment; endogenous in cells
T1 sequence (P11498 21-1178): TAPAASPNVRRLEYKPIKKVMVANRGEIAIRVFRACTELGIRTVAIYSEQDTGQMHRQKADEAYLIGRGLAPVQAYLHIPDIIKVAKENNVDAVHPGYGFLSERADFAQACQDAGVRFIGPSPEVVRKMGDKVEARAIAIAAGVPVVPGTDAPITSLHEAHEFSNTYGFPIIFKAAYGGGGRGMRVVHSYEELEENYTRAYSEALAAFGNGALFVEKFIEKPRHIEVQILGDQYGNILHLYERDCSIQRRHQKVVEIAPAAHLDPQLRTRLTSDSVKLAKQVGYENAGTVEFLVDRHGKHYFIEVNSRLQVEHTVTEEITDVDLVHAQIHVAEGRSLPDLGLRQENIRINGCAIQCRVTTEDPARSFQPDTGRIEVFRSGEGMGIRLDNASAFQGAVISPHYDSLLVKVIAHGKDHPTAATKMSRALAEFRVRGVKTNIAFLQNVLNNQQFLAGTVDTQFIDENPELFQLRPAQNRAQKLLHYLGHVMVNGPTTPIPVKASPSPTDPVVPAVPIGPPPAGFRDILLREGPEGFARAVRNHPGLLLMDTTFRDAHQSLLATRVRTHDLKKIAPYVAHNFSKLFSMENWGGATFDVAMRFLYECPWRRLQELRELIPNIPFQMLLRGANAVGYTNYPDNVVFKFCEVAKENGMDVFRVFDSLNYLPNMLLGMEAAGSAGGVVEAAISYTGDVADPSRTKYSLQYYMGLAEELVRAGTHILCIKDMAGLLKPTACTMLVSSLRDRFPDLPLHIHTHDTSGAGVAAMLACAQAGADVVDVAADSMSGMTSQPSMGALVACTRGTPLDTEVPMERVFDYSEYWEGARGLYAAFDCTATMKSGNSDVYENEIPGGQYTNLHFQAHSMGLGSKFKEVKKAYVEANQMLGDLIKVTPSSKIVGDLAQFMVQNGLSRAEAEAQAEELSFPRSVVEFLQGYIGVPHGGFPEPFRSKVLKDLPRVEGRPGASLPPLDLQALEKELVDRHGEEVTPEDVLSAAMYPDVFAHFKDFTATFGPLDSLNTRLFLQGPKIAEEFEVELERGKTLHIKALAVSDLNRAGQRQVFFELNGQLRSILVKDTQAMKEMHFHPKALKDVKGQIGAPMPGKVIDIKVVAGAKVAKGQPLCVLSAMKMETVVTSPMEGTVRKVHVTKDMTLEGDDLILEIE

pyruvate carboxylase [12] = assay: qRT-PCR analysis of gene expression level in lung adenocarcinoma cells; type: cell-based; conditions: FIG. 11
Experimental: as §1, with “h. […]” for “h.”

pyruvate carboxylase [13] = assay: Western blot analysis of protein expression level in lung adenocarcinoma cells; type: cell-based; conditions: GAPDH internal reference, FIG. 12
Experimental: as §1, with “h. […]” for “h.”
the protein samples were separated by an SDS-PAGE electrophoresis, the separated proteins were transferred to a PVDF membrane, the membrane was blocked with 5% powdered skim milk for 1 h, the membrane was washed, an incubation with a primary antibody (PC, GAPDH) was conducted overnight in a 4° C. refrigerator, the membrane was washed, an incubation with a secondary antibody was conducted at room temperature for 1 h, the membrane was washed, a target band was obtained by ECL chemiluminescence method, the band was subjected to a grayscale scanning by using a Quantity One software and a GAPDH internal reference was used for correction.

A549 cells = assay: Tumor-bearing model of a nude mouse, intratumoral treatment; type: in vivo, BALB/c nude mice
Experimental: This example related to a process of constructing a tumor-bearing model of a nude mouse: 3- to 4-week-old BALB/c nude mice (SiPeiFu Laboratory Animal Technology Co., Ltd) were taken and used for an experiment after adapting to local conditions for 1 week, 2×10^7 of A549 cells were injected subcutaneously into left and right armpits of the mice, and when an implanted tumor reached 50 mm^3, a drug treatment was conducted.
This example related to a drug-targeted treatment process of a tumor-bearing model of a nude mouse: • The nude mice were divided into two groups: a cisplatin experimental group and a normal saline control group, with 5 nude mice in each group; • The nude mice in the experimental group were injected intraperitoneally with cisplatin (5 mg/kg body weight/week), 50 μM of a PIWI-interacting RNA piR-hsa-211106 agonist was injected directly into a tumor on a right side and piR-NC (Shanghai GenePharma Co., Ltd) was injected into a tumor on a left side as a control group of the cisplatin treatment group; • An equal volume of normal saline was injected intraperitoneally into the nude mice in the control group, the PIWI-interacting RNA piR-hsa-211106 agonist was used to treat the tumor as above, the PIWI-interacting RNA piR-hsa-211106 agonist was used for treatment every other day for 28 days, and the tumor volume was measured once a week; the mice were sacrificed at an end of the experiment, and xenografts were peeled off and photographed.

[14] = injected into tumors in nude mice, versus control groups

Substance: piR-hsa-211106: PIWI-interacting RNA, SEQ ID NO:1 TCCGGCTCGAAGGACTTCGTCTGTAATTTT; used as double-strand agonist with cholesterol, thio skeleton and methoxy modifications (cholesterol, phosphorothioate and 2'-OMe modifications, pattern not given here, duplex)
- cell proliferation activity (OD value at 450 nm, CCK8) [1]: significantly inhibit the proliferation
- cell proliferation activity (OD value at 450 nm, CCK8) [2]: significantly inhibit the proliferation
- proportion of proliferating cells (Edu staining) [3]: significantly inhibit the growth
- proportion of proliferating cells (Edu staining) [4]: significantly inhibit the growth
- migration ability (Transwell chamber, migrated cells counted) [5]: significantly inhibit the migration ability
- migration ability (Transwell chamber, migrated cells counted) [6]: significantly inhibit the migration ability
- migration ability (scratch experiment, relative migration rate) [7]: significantly inhibit the migration ability
- migration ability (scratch experiment, relative migration rate) [8]: significantly inhibit the migration ability
- apoptosis (flow cytometry) [9]: significantly cause the apoptosis
- apoptosis (flow cytometry) [10]: significantly cause the apoptosis
- binding to pyruvate carboxylase (RNA pull-down) (pyruvate carboxylase [11]): binds to the PC; also recorded: can bind to a pyruvate carboxylase
- expression of pyruvate carboxylase (gene expression level, qRT-PCR) (pyruvate carboxylase [12]): significantly inhibit an expression
- expression of pyruvate carboxylase at a protein level (WB) (pyruvate carboxylase [13]): can regulate an expression of a pyruvate carboxylase at a protein level
- therapeutic effect compared with positive control cisplatin (A549 cells; 50 μM agonist injected directly into tumor every other day for 28 days, cisplatin 5 mg/kg body weight/week intraperitoneally, FIGS. 13, 14 and 15): comparable to that of the positive control group treated with cisplatin; also recorded: comparable therapeutic effect as the positive control drug cisplatin
- growth of lung adenocarcinoma in vivo (A549 cells; A549 tumor in nude mice, agonist intratumoral every other day for 28 days): capable of inhibiting growth of lung adenocarcinoma in vivo
- effect in combination with cisplatin (A549 cells; agonist intratumoral plus cisplatin 5 mg/kg body weight/week intraperitoneally, 28 days): increases chemical sensitivity of the chemotherapeutic drug cisplatin and has a synergistic effect
- tumor volume (A549 cells; [14]): smaller than those of the control groups
- tumor weight (A549 cells; [14]): smaller than those of the control groups
